# Data as given in patent publication US12516058B2, “Small-molecule compounds for controlling endosomal toll-like receptors and therapeutic agent for autoimmune diseases using same” (priority 2020, dated 2026).
# Entries after “also recorded” stand apart in the source; their conditions may differ.
# Experiments:
# TLR2/6 = molecular target: T1, TLR2/6 (Mus musculus, UniProt Q9EPW9+Q9QUN7); assay: TNF-α secretion ELISA after FSL-1 in RAW 264.7 cells; assay type: cell-based
# T1 construct: endogenous in cells; host or cells: RAW 264.7
# Protocol: (§1) In order to determine the inhibitory activities of the test-ligand, RAW 264.7 cells were pretreated with each candidate compound for 1 hour, then treated with Pam3CSK4 (synthetic triacyl lipopeptide; TLR1/2, Invitrogen), FSL-1 (synthetic diacyl lipoprotein, TLR2/6, 100 ng/ml), lipopolysaccharide (LPS, TLR4, Sigma Aldrich), imiquimod (IMQ, TLR7, Invitrogen), and ODN2395 (type C CpG repeat motif DNA oligo(5′-[…]-3), TLR9, Bioneer) ligand for 4 hours, and treated with poly I:C (I:C repeat motif double-stranded RNA, TLR3, Invitrogen) and TL8-506 (TLR8, Invitrogen) showing delayed reactivity for 24 hours. After activation of TLR, the supernatant was diluted in an appropriate ratio so as to measure within the standard dose range, transferred to a pre-coated 96-well assay plate, and then treated with mouse TNF-alpha secretion level in accordance with the manufacturer's instructions using a mouse-TNF-alpha ELISA-kit (Invitrogen).
# (§2) In order to determine the inhibitory activities of SK41, SK50, SK58 and SK64 on various TLR signaling pathways, RAW 264.7 cells were cultured along with each compound and then stimulated with different TLR agonists. The TLR agonists used herein were Pam3CSK4 (TLR1/2), FSL-1 (TLR2/6), LPS (TLR4) and FLA-ST (TLR5) as cell surface TLRs, and poly I:C (TLR3) and TL8-506 (TLR8) as endosomal TLRs.
# TLR5 = molecular target: T2, TLR5 (Homo sapiens, UniProt O60602); assay: TNF-α secretion ELISA after FLA-ST in differentiated THP-1 cells; assay type: cell-based
# T2 construct: endogenous in cells; host or cells: THP-1 (differentiated)
# Protocol: In order to determine the inhibitory activity of the test-ligand against TLR5, differentiated THP-1 cells were pretreated with each compound for 1 hour and then treated with FLA-ST ([…] flagellar protein, TLR5, Invitrogen) for 4 hours. After activation of the TLRs, the supernatant was diluted and transferred to a pre-coated 96-well assay plate, and the level of human TNF-alpha secretion was measured in accordance with the manufacturer's instructions using the human TNF-alpha ELISA-kit (Invitrogen).
# as §2
# TLR1/2 = molecular target: T3, TLR1/2 (Mus musculus, UniProt Q9EPQ1+Q9QUN7); assay: TNF-α secretion ELISA after Pam3CSK4 in RAW 264.7 cells; assay type: cell-based
# T3 construct: endogenous in cells; host or cells: RAW 264.7
# Protocol: as §1, §2
# [1] = tested on: MRL/lpr (MRL/Fas^lpr) mice; assay: MRL/lpr systemic lupus erythematosus mouse model, oral administration; assay type: in vivo; conditions: for change in body weight (index for long-term administration toxicity): daily oral, monitored at 3-day intervals; for antinuclear antibody (ANA) in blood plasma / C3 complement in blood plasma: end of experiment, ELISA, vs vehicle and HCQ 60 mg/Kg; for antinuclear antibody (ANA) in blood plasma: reaches normal as it decreases; for C3 complement in blood plasma: reaches normal as it increases; for visual (apparent) healing effect: oral once a day for 4 weeks, 15 mg/Kg for SK series and HCQ; for visual therapeutic effects: oral once a day, SK series 30 mg/Kg, HCQ 60 mg/Kg
# Protocol: 14-weeks-old, 36-40 g, female MRL/lpr (or MRL/Fas^lpr) mice (purchased from the Jackson Laboratory, USA through Orient Bio) were used for the lupus treatment effect experiment and breeding was performed in accordance with the breeding and ethics regulations of the Laboratory Animal Research Center of the Ajou University Medical Center. Prior to the experiment, 4 to 5 animals were randomly assigned to each of a negative control group (Vehicle), a positive control group (HCQ), and an experimental compound group (SK41, SK50, SK58 and SK64) for blinding, and each of SK41, SK50, SK58, and SK64 compounds was completely dissolved in a vehicle consisting of ethanol (ethyl alcohol) 10%, polyethylene glycol 400 40% and sterile distilled water 50%, and then the solution was orally administered to experimental animals.
# As for the administration method, only the same amount of vehicle was administered to the negative control group, 15-60 MPK (15-60 mg/Kg) of HCQ was administered daily to the positive control group, and SK41, SK50, SK58 and SK64 was administered daily in an amount of 15-30 MPK (15-30 mg/Kg) to the experimental compound group, […] experimental mice were 14 weeks old.
# As for the sample collection method, the weight of the experimental mice was measured at 3-day intervals, and the mice were subjected to inhalational anesthesia and euthanasia using IFRAN liquid (Hana Pharmaceutical, Korea; ingredient name: Isoflurane) on the day of expiry of 40 days, and then blood, kidney, spleen and axillary lymph nodes and inguinal lymph nodes were collected therefrom.
# Blood samples were collected from the heart of an anesthetized mouse, the serum was extracted therefrom using a serum separation tube and a centrifuge (4,000 rpm, 10 minutes, 4° C.), and blood concentrations of ANA (anti-nuclear Antibody, MyBioSourse, USA) as a lupus severity indicator molecule and C3 complement (MyBioSourse, USA), a comprehensive inflammatory indicator molecule, were measured through enzyme-linked immunosorbent assay (ELISA).
# Organs were treated with an RNA stabilization agent (RNA Stabilization Reagent, Germany, QUIAGEN) immediately after extraction to preserve the condition and prepare specimens, the organs were imaged and weighed to determine whether or not the organs are damaged and to measure the degree of immune organ hypertrophy, and the sum of the weights of one pair of axillary lymph nodes and one pair of inguinal lymph nodes was recorded as the weight of the lymph nodes.
# RAW 264.7 cells = assay: MTT cytotoxicity (LC50) and therapeutic index analysis; assay type: cell-based, mouse; conditions: 24 h, among the 13 selected compounds
# Protocol: RAW 264.7 cells were seeded at a density of 2×10^4 cells/well in a 96-well cell culture plate and stabilized overnight in a humidified incubator. Each well was treated with a test compound or negative control (dimethyl sulfoxide; DMSO). The plates were allowed to stand in an incubator for 24 hours. Then, the medium of the 96-well culture dish was discarded and 500 μg/ml MTT solution (InvivoGen Ltd.) was added to each well. After incubation for 3 hours, the solution was removed and the residue was incubated in DMSO (Biosesang Co. Ltd., Korea) for 30 minutes to completely dissolve the formazan dye. The absorbance was measured at a wavelength of 595 nm with a microplate colorimetric reader and normalized based on the untreated control. All cultures were performed under the same conditions as in the cell culture described above.
# In order to plot the concentration-dependent LC50 curves, treatment with the SK series ligands at different concentrations up to 200 μM (the highest concentration that could be treated within the level of 0.5% DMSO) was performed. Then, cell viability and toxicity response upon treatment with ligands were analyzed by MTT as described in Examples 1-3. Cell viability in each plot was normalized from negative control (100%; no treatment) to positive control (highest concentration of test-ligand), and LC50 was determined by non-linear regression (Graph Pad Prism 7.0). In order to plot the concentration-dependent IC50 curves, pre-treatment with the SK series ligands was performed at different concentrations up to 50 μM (twice the initial concentration). Cell responses mediated by TLR7 and TLR9 (levels of TNF-α secretion) were analyzed by ELISA as described in Examples 1-4. The cytokine level in each plot was normalized from negative control (non-treated) to positive control (treatment with ligand), and IC50 was determined by non-linear regression (Graph Pad Prism 7.0).
# Then, LC50 and IC50 were applied to the following function to calculate TI.
# [2] = after administration for 40 days, 30 mg/Kg
# T3 sequence (Q9EPQ1 26-795): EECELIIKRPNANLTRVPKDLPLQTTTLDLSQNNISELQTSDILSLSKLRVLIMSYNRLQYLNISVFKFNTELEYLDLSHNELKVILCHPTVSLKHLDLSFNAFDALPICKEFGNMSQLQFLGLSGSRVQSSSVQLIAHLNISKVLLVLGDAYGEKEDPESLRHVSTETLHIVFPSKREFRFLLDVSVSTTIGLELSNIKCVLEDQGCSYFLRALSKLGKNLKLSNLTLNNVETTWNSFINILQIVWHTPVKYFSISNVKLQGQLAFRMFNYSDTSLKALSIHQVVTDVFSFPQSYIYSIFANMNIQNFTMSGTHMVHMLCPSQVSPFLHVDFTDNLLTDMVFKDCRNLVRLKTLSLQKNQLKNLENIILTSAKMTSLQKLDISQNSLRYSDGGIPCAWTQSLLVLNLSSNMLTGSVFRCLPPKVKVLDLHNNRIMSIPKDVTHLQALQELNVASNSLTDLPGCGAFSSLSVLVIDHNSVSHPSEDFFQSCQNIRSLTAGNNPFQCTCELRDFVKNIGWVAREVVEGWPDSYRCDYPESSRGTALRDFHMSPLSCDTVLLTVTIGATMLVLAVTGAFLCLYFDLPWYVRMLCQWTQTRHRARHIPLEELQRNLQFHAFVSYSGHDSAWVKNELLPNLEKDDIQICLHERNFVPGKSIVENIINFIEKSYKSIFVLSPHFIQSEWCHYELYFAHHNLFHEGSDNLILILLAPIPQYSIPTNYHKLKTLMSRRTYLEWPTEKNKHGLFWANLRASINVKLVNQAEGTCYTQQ
# T3 sequence (Q9QUN7 25-784): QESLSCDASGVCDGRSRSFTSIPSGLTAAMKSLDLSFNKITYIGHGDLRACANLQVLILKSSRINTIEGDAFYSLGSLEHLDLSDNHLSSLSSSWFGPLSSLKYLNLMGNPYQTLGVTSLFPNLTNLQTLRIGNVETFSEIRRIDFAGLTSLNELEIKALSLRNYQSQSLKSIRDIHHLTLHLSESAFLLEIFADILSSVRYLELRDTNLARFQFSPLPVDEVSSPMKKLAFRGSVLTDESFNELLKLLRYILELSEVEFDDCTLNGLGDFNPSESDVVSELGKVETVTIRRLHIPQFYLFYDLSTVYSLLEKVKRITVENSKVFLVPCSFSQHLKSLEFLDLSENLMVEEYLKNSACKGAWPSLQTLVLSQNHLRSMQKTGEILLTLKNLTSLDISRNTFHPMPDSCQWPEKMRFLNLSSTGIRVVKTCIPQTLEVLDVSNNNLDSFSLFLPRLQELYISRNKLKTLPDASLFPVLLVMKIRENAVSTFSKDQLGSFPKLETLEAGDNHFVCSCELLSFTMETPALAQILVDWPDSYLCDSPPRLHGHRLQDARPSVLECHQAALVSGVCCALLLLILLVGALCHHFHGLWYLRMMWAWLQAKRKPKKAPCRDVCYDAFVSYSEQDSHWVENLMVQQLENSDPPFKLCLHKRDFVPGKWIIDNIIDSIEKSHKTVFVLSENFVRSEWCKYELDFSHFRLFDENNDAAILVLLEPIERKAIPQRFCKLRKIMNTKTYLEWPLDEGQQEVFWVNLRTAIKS
# T2 sequence (O60602 21-858): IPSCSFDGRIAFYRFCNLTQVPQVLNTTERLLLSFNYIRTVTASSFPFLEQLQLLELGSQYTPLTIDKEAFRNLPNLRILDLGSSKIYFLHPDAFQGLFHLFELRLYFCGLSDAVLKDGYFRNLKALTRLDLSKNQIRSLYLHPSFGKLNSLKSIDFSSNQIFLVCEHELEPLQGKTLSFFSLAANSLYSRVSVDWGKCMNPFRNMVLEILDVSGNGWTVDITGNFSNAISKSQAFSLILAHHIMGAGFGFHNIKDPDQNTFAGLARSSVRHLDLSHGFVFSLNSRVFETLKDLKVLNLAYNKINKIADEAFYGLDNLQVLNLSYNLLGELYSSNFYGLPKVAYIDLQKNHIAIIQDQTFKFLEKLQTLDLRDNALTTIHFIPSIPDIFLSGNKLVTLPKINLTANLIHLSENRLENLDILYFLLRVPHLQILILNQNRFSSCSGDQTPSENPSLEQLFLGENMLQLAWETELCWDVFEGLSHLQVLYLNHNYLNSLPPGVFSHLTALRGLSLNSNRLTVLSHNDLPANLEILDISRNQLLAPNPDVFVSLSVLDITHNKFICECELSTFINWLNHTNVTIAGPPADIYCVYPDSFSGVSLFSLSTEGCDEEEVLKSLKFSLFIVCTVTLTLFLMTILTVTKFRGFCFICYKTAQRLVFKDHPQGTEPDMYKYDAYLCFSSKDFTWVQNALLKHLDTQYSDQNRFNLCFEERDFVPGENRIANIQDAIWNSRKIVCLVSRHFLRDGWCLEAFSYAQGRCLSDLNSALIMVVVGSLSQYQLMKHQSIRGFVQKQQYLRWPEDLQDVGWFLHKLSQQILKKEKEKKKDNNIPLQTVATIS
# T1 sequence (Q9QUN7 25-784): as the sequence (Q9QUN7 25-784) above
# T1 sequence (Q9EPW9 28-795): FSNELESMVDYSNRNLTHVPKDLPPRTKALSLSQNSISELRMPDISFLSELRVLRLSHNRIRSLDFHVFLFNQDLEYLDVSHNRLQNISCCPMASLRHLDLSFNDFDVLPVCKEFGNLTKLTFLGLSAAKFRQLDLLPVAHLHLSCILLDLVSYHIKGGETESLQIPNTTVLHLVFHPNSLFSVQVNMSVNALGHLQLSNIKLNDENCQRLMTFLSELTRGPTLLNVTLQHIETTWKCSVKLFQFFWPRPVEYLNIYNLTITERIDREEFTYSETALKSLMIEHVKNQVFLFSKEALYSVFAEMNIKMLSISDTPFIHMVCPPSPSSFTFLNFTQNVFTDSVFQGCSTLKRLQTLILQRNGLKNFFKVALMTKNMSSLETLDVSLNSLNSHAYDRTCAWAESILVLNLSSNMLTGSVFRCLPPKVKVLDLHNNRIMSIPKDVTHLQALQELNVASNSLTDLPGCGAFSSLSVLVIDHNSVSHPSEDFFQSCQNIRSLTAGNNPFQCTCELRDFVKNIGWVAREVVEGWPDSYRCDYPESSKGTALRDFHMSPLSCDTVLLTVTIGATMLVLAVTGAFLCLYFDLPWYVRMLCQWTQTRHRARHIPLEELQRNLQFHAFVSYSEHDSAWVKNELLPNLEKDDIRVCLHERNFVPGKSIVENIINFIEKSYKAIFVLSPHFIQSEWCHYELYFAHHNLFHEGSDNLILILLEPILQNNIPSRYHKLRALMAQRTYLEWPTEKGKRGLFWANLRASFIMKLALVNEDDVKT
smiles,measurement,setting,value
"Cc1cc2c(N)c3c(nc2n1CCCN(C)C)CCCCCC3 [SK41, 1-(3-(dimethylamino)propyl)-2-methyl-5,6,7,8,9,10-hexahydro-1H-cycloocta[b]pyrrolo[3,2-e]pyridin-4-amine]",inhibitory activity against cell surface TLR2/6 (TNF-α secretion),TLR2/6,did not exhibit a specific inhibitory activity; also recorded: no inhibitory activities
same,inhibitory activity against cell surface TLR5 (TNF-α secretion),TLR5,did not exhibit a specific inhibitory activity; also recorded: no inhibitory activities
same,inhibitory activity against cell surface TLR1/2 (TNF-α secretion),TLR1/2,did not exhibit a specific inhibitory activity; also recorded: no inhibitory activities
same,appearance of the lymph nodes,[1]; [2],small inguinal lymph node sizes
same,change in body weight (index for long-term administration toxicity),[1],did not exhibit a change in body weight
same,antinuclear antibody (ANA) in blood plasma,[1],significant results
same,C3 complement in blood plasma,[1],significant results
same,visual (apparent) healing effect,[1],superior visual (apparent) healing effect to that of HCQ
same,visual therapeutic effects,[1],superior to HCQ
same,toxicity (LC50),RAW 264.7 cells,lower toxicity
"COc1ccc2c(c1)c1c(N)c3c(nc1n2CCCN(C)C)CCCC3 [SK50, 6-(3-(dimethylamino)propyl)-9-methoxy-2,3,4,6-tetrahydro-1H-indolo[2,3-b]quinolin-11-amine]",inhibitory activity against cell surface TLR2/6 (TNF-α secretion),TLR2/6,did not exhibit a specific inhibitory activity; also recorded: no inhibitory activities
same,inhibitory activity against cell surface TLR5 (TNF-α secretion),TLR5,did not exhibit a specific inhibitory activity; also recorded: no inhibitory activities
same,inhibitory activity against cell surface TLR1/2 (TNF-α secretion),TLR1/2,did not exhibit a specific inhibitory activity; also recorded: no inhibitory activities
same,change in body weight (index for long-term administration toxicity),[1],did not exhibit a change in body weight
same,toxicity (LC50),RAW 264.7 cells,lower toxicity
"Cc1ccc2c(c1)c1c(N)c3c(nc1n2CCCN(C)C)CCCC3 [SK58, 6-(3-(dimethylamino)propyl)-9-methyl-2,3,4,6-tetrahydro-1H-indolo[2,3-b]quinolin-11-amine]",inhibitory activity against cell surface TLR2/6 (TNF-α secretion),TLR2/6,did not exhibit a specific inhibitory activity; also recorded: no inhibitory activities
same,inhibitory activity against cell surface TLR5 (TNF-α secretion),TLR5,did not exhibit a specific inhibitory activity; also recorded: no inhibitory activities
same,inhibitory activity against cell surface TLR1/2 (TNF-α secretion),TLR1/2,did not exhibit a specific inhibitory activity; also recorded: no inhibitory activities
same,appearance of the lymph nodes,[1]; [2],relatively good
same,weight of the lymph node,[1]; [2],relatively less swollen
same,weight of the spleen,[1]; [2],relatively less swollen
same,change in body weight (index for long-term administration toxicity),[1],did not exhibit a change in body weight
same,antinuclear antibody (ANA) in blood plasma,[1],significant results; also recorded: low antinuclear antibody
same,C3 complement in blood plasma,[1],significant results; also recorded: high C3 complement
same,visual (apparent) healing effect,[1],superior visual (apparent) healing effect to that of HCQ
same,visual therapeutic effects,[1],superior to HCQ
same,toxicity (LC50),RAW 264.7 cells,lower toxicity
"COC(=O)c1ccc2c(c1)c1c(N)c3c(nc1n2CCCN(C)C)CCCC3 [SK64, Methyl 11-amino-6-(3-(dimethylamino)propyl)-2,3,4,6-tetrahydro-1H-indolo[2,3-b]quinolin-9-carboxylate]",inhibitory activity against cell surface TLR2/6 (TNF-α secretion),TLR2/6,did not exhibit a specific inhibitory activity; also recorded: no inhibitory activities
same,inhibitory activity against cell surface TLR5 (TNF-α secretion),TLR5,did not exhibit a specific inhibitory activity; also recorded: no inhibitory activities
same,inhibitory activity against cell surface TLR1/2 (TNF-α secretion),TLR1/2,did not exhibit a specific inhibitory activity; also recorded: no inhibitory activities
same,change in body weight (index for long-term administration toxicity),[1],did not exhibit a change in body weight
same,visual therapeutic effects,[1],superior to HCQ
same,toxicity (LC50),RAW 264.7 cells,lower toxicity
